Measured values from US4472304A, “(Amido)N-substituted bleomycins, salts thereof and process for preparation thereof” (Nippon Kayaku Kabushiki Kaisha, priority 1981, dated 1984).

Tests used:
Bacillus subtilis = experiment: Antimicrobial activity against Bacillus subtilis (agar plate-cylinder); type: cell-based; conditions: standard bleomycin A2 (copper-free) assumed 1,000 mcg potency/mg
Method: (§1) 2. ANT[…] MYC[…] ATCC 607 AND BACILLUS SUBTILIS
(§2) The antimicrobial activity was tested against the captioned test organisms by the method of agar plate-cylinder. The activity was recorded on the assumption that the activity of standard sample of bleomycin A2 (copper-free form) is 1,000 mcg poteney/mg.

[1] = tested on: Mycobacterium smegmatis ATCC 607; experiment: Antimicrobial activity against Mycobacterium smegmatis ATCC 607 (agar plate-cylinder); type: cell-based; conditions: standard bleomycin A2 (copper-free) assumed 1,000 mcg potency/mg
Method: as §1, §2

SMILES	Antimicrobial potency of Cu-free compound against Bacillus subtilis (Bacillus subtilis) [mcg potency/mg]	Antimicrobial potency of Cu-free compound against Mycobacterium smegmatis ATCC 607 [1] [mcg potency/mg]
Cc1c(N)nc(C(CC(N)=O)NCC(N)C(=O)NC(C)C)nc1C(=O)NC(C(=O)NC(C)C(O)C(C)C(=O)NC(C(=O)NCCc1nc(-c2nc(C(=O)NCCc3c[nH]cn3)cs2)cs1)C(C)O)C(OC1OC(CO)C(O)C(O)C1OC1OC(CO)C(O)C(OC(N)=O)C1O)c1cnc[nH]1 (stereo not shown) [Compound 3, 2-(4'-Imidazolyl)ethylamino-(amido)N--[isopropyl]-BLM]	593	2778
Cc1c(N)nc(C(CC(N)=O)NCC(N)C(=O)NCc2ccccc2)nc1C(=O)NC(C(=O)NC(C)C(O)C(C)C(=O)NC(C(=O)NCCc1nc(-c2nc(C(=O)NCCc3c[nH]cn3)cs2)cs1)C(C)O)C(OC1OC(CO)C(O)C(O)C1OC1OC(CO)C(O)C(OC(N)=O)C1O)c1cnc[nH]1 (stereo not shown) [Compound 4, 2-(4'-Imidazolyl)ethylamino-(amido)N--[benzyl]-BLM]	579	6595
Cc1c(N)nc(C(CC(N)=O)NCC(N)C(=O)NCCCNC(C)c2ccccc2)nc1C(=O)NC(C(=O)NC(C)C(O)C(C)C(=O)NC(C(=O)NCCc1nc(-c2nc(C(=O)NCCc3c[nH]cn3)cs2)cs1)C(C)O)C(OC1OC(CO)C(O)C(O)C1OC1OC(CO)C(O)C(OC(N)=O)C1O)c1cnc[nH]1 [Compound 5, 2-(4'-Imidazolyl)ethylamino-(amido)N--[3-((S)-1'-phenylethyl)-aminopropyl]-BLM]	3772	9846
Cc1c(N)nc(C(CC(N)=O)NCC(N)C(=O)NCCN)nc1C(=O)NC(C(=O)NC(C)C(O)C(C)C(=O)NC(C(=O)NCCc1nc(-c2nc(C(=O)NCCc3c[nH]cn3)cs2)cs1)C(C)O)C(OC1OC(CO)C(O)C(O)C1OC1OC(CO)C(O)C(OC(N)=O)C1O)c1cnc[nH]1 (stereo not shown) [Compound 6, 2-(4'-Imidazolyl)ethylamino-(amido)N--[2-aminoethyl]-BLM]	4453	2396
Cc1c(N)nc(C(CC(N)=O)NCC(N)C(=O)NC(C)C)nc1C(=O)NC(C(=O)NC(C)C(O)C(C)C(=O)NC(C(=O)NCCc1nc(-c2nc(C(=O)NCCCCNC(=N)N)cs2)cs1)C(C)O)C(OC1OC(CO)C(O)C(O)C1OC1OC(CO)C(O)C(OC(N)=O)C1O)c1cnc[nH]1 (stereo not shown) [Compound 7, 4-Guanidinobutylamino-(amido)N--[isopropyl]-BLM]	1950	6425
Cc1c(N)nc(C(CC(N)=O)NCC(N)C(=O)NCC(F)(F)F)nc1C(=O)NC(C(=O)NC(C)C(O)C(C)C(=O)NC(C(=O)NCCc1nc(-c2nc(C(=O)NCCCCNC(=N)N)cs2)cs1)C(C)O)C(OC1OC(CO)C(O)C(O)C1OC1OC(CO)C(O)C(OC(N)=O)C1O)c1cnc[nH]1 (stereo not shown) [Compound 9, 4-Guanidinobutylamino-(amido)N--[2',2',2'-trifluoroethyl]-BLM]	730	3990
CCCCCCCCNC(=O)C(N)CNC(CC(N)=O)c1nc(N)c(C)c(C(=O)NC(C(=O)NC(C)C(O)C(C)C(=O)NC(C(=O)NCCc2nc(-c3nc(C(=O)NCCCCNC(=N)N)cs3)cs2)C(C)O)C(OC2OC(CO)C(O)C(O)C2OC2OC(CO)C(O)C(OC(N)=O)C2O)c2cnc[nH]2)n1 (stereo not shown) [Compound 10, 4-Guanidinobutylamino-(amido)N--[octyl]-BLM]	1500	33700
Cc1c(N)nc(C(CC(N)=O)NCC(N)C(=O)NCCCNC(C)c2ccccc2)nc1C(=O)NC(C(=O)NC(C)C(O)C(C)C(=O)NC(C(=O)NCCc1nc(-c2nc(C(=O)NCCCCNC(=N)N)cs2)cs1)C(C)O)C(OC1OC(CO)C(O)C(O)C1OC1OC(CO)C(O)C(OC(N)=O)C1O)c1cnc[nH]1 [Compound 11, 4-Guanidinobutylamino-(amido)N--[3-((S)-1'-phenylethyl)amino-propyl]-BLM]	7036	15729
CCCCN(CCCC)CCCNC(=O)C(N)CNC(CC(N)=O)c1nc(N)c(C)c(C(=O)NC(C(=O)NC(C)C(O)C(C)C(=O)NC(C(=O)NCCc2nc(-c3nc(C(=O)NCCCCNC(=N)N)cs3)cs2)C(C)O)C(OC2OC(CO)C(O)C(O)C2OC2OC(CO)C(O)C(OC(N)=O)C2O)c2cnc[nH]2)n1 (stereo not shown) [Compound 12]	4384	16438
CCCCCCCCCCCCNC(=O)C(N)CNC(CC(N)=O)c1nc(N)c(C)c(C(=O)NC(C(=O)NC(C)C(O)C(C)C(=O)NC(C(=O)NCCc2nc(-c3nc(C(=O)NCCCCNC(=N)N)cs3)cs2)C(C)O)C(OC2OC(CO)C(O)C(O)C2OC2OC(CO)C(O)C(OC(N)=O)C2O)c2cnc[nH]2)n1 (stereo not shown) [Compound 13, 4-Guanidinobutylamino-(amido)N--[lauryl]-BLM]	660	7650
Cc1c(N)nc(C(CC(N)=O)NCC(N)C(=O)NCc2ccccc2)nc1C(=O)NC(C(=O)NC(C)C(O)C(C)C(=O)NC(C(=O)NCCc1nc(-c2nc(C(=O)NCCCCNC(=N)N)cs2)cs1)C(C)O)C(OC1OC(CO)C(O)C(O)C1OC1OC(CO)C(O)C(OC(N)=O)C1O)c1cnc[nH]1 (stereo not shown) [Compound 14, 4-Guanidinobutylamino-(amido)N--[benzyl]-BLM]	1650	28140
Cc1c(N)nc(C(CC(N)=O)NCC(N)C(=O)NC(c2ccccc2)c2ccccc2)nc1C(=O)NC(C(=O)NC(C)C(O)C(C)C(=O)NC(C(=O)NCCc1nc(-c2nc(C(=O)NCCCCNC(=N)N)cs2)cs1)C(C)O)C(OC1OC(CO)C(O)C(O)C1OC1OC(CO)C(O)C(OC(N)=O)C1O)c1cnc[nH]1 (stereo not shown) [Compound 15, 4-Guanidinobutylamino-(amido)N--[diphenylmethyl]-BLM]	980	42320
Cc1c(N)nc(C(CC(N)=O)NCC(N)C(=O)NC(Cc2ccccc2)c2ccccc2)nc1C(=O)NC(C(=O)NC(C)C(O)C(C)C(=O)NC(C(=O)NCCc1nc(-c2nc(C(=O)NCCCCNC(=N)N)cs2)cs1)C(C)O)C(OC1OC(CO)C(O)C(O)C1OC1OC(CO)C(O)C(OC(N)=O)C1O)c1cnc[nH]1 (stereo not shown) [Compound 16, 4-Guanidinobutylamino-(amido)N--[1',2'-diphenylethyl]-BLM]	520	24480
Cc1c(N)nc(C(CC(N)=O)NCC(N)C(=O)Nc2ccc3ccccc3c2)nc1C(=O)NC(C(=O)NC(C)C(O)C(C)C(=O)NC(C(=O)NCCc1nc(-c2nc(C(=O)NCCCCNC(=N)N)cs2)cs1)C(C)O)C(OC1OC(CO)C(O)C(O)C1OC1OC(CO)C(O)C(OC(N)=O)C1O)c1cnc[nH]1 (stereo not drawn) [Compound 17, 4-Guanidinobutylamino-(amido)N--[β-naphthyl]-BLM]	1295	33650
